The results in this text go back to patent publication US12590123B2, “Compounds and methods for treating cancer, viral infections, and allergic conditions” (Washington University, priority 2019, dated 2026).

Format in all cases: biochemical
The target of experiment [1] is T1, recombinant HGFA serine protease domain (Homo sapiens, UniProt Q04756).
T1 construct: His6 tag (N); seven amino acid spacer plus TEV cleavage site (N); made in house; host or cells: High 5 insect cells (baculovirus; Sf9 for virus production)
T1 sequence (Q04756 373-655): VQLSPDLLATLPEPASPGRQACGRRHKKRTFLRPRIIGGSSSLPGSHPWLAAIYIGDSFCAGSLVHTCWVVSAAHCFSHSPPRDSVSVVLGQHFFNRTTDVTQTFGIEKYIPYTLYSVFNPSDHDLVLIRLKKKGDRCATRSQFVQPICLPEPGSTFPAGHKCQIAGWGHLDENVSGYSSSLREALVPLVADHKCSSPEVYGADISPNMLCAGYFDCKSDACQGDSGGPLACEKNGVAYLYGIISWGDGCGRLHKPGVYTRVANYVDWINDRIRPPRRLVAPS
The experiment is described as follows: Fluorescent kinetic enzyme assay of HGFA activity (Boc-QLR-AMC). The note with it: Table 2; read-out: HGFA (IC50 nM). An outline of the steps:
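His-tagged HGFA protease domain from baculovirus-infected High 5 cells, 6.25 nM in pH 8 Tris/NaCl/5 mM CaCl2/0.01% Triton X-100 with 2% DMSO. IC50 from four-parameter velocity fit (≥3 runs); apparent Ki by Cheng–Prusoff.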

Another experiment addresses T2, activated hepsin (Homo sapiens, UniProt P05981).
T2 construct: purchased R&D Systems 4776-SE-010
The experiment is described as follows: Fluorescent kinetic enzyme assay of hepsin activity (Boc-QAR-AMC). The note with it: Table 2; read-out: Hepsin (IC50 nM).

Another experiment addresses T3, matriptase (Homo sapiens, UniProt Q9Y5Y6).
T3 construct: purchased R&D Systems 3946-SE-010
T3 sequence (Q9Y5Y6 615-855 limits assumed): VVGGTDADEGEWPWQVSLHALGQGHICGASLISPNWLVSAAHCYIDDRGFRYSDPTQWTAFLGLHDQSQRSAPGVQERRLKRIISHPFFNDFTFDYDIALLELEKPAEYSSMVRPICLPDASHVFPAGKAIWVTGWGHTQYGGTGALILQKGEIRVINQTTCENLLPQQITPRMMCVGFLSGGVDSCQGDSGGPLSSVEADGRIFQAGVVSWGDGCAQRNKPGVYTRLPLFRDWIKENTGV
In words: Fluorescent kinetic enzyme assay of matriptase activity (Boc-QAR-AMC). Particulars: Table 2; read-out: Matriptase (IC50 nM).

The next experiment addresses Factor Xa (Homo sapiens, UniProt P00742). The experiment is described as follows: Chromogenic kinetic enzyme assay of Factor Xa (S2222). The note with it: Table 2; chromogenic assay; read-out: Factor Xa* (IC50 nM).
The next experiment concerns the target recombinant thrombin (Homo sapiens, UniProt P00734). In words: Chromogenic kinetic enzyme assay of thrombin (S2238). Particulars: Table 2; chromogenic assay; read-out: Thrombin* (IC50 nM).

Chain of Factor Xa (P00742 235-488 limits assumed): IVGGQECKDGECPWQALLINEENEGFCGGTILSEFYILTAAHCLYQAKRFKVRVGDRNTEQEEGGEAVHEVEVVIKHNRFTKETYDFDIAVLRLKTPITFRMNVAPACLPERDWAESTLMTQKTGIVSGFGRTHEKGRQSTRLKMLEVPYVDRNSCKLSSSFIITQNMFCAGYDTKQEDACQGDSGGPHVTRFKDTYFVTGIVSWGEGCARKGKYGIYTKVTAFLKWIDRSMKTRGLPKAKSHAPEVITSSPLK
Chain of Factor Xa (P00742 41-179 partner limits assumed): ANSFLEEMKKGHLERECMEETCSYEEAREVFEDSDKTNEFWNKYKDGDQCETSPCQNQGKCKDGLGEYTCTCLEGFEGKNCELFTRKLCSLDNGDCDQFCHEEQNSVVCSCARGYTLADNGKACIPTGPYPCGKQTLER
T2 sequence (P05981 163-417 limits assumed): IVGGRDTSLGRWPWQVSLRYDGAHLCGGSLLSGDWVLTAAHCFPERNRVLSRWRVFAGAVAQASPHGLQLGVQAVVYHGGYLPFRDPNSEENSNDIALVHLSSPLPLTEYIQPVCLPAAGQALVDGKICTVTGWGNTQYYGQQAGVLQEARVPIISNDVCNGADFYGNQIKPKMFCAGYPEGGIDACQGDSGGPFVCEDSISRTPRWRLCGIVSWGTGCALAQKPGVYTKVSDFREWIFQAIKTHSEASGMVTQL
T2 sequence (P05981 1-162 partner limits assumed): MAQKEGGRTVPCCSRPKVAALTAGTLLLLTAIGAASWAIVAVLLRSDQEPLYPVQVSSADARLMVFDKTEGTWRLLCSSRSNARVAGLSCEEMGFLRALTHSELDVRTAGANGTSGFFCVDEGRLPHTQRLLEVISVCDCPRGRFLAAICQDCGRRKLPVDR
Protocol for matriptase: After thirty minutes of incubation at room temperature, Boc-QLR-AMC substrate was added (HGFA assay) or Boc-QAR-AMC substrate (matriptase, and hepsin assays). […] From a plot of the mean reaction velocity versus the inhibitor concentration, a non-linear four parameter curve fit was performed using GraphPad Prism (GraphPad Software, San Diego, CA) to determine inhibitor IC50s. The IC50 values were determined from the average of three or more separate experimental determinations. Apparent Ki values were calculated using the Cheng and Prusoff equation (Ki=IC50/(1+[S]/Km).
Inhibitors were pre-incubated with protease followed by the addition of the substrate. Inhibition of substrate proteolysis derived fluorescence was monitored kinetically over a period of one hour.

As usually defined, the IC50 is the concentration needed to halve the response being measured. As for `CC(=O)N[C@H]1CC(=O)NCCCC[C@@H](C(=O)N[C@@H](CCCNC(=N)N)C(=O)c2nc3ccccc3s2)NC(=O)[C@H](Cc2ccccc2)NC1=O` [VD3112, (3S,6S,14S)-6-acetamido-N—((S)-1-(benzo[d]thiazol-2-yl)-5-guanidino-1-oxopentan-2-yl)-3-benzyl-2,5,8-trioxo-1,4,9-triazacyclotetradecane-14-carboxamide], the IC50 came out at 3170 nM in experiment [1]; 17.4 nM on activated hepsin; 3.4 nM at matriptase; 1530 nM on Factor Xa; 1090 nM on recombinant thrombin.
